Measurements taken from patent US20250169501A1, “Metal(loid)-Based Compositions and Uses Thereof Against Bacterial Biofilms” (CCREST Laboratories Inc., priority 2022, published 2025).
Where two headings read alike, the source gives them in different places.

Tests used:
P. aeruginosa biofilm [1] = assay type: cell-based, Pseudomonas aeruginosa
P. aeruginosa = assay type: cell-based, Pseudomonas aeruginosa; details: SWF; for recovery of bacteria in the same fresh media after treatment: read after 2, 4 and 24 hours; for dilution in which bacteria recovered when agent used alone: vs combination
Text: For the MBC and recovery potency of bacteria. […] The last well that had no bacterial growth was defined as the MBC.

P. aeruginosa PAO1 = assay: In vitro resistance acquisition, serial passage; assay type: cell-based, Pseudomonas aeruginosa; details: SWF, sublethal (1/8 MIC) concentration, 7 days
Description: Serial passage of growth as a screen for resistant P. aeruginosa PAO1 was carried out for 7 days in SWF supplemented with sublethal (1/8 dilution from the MIC) concentrations of Ag, Te, and Ag—Te mixture. […] Strains of P. aeruginosa PAO1 were grown in sublethal (1/8th MIC) concentrations of Ag, Te or a mixture of the two antimicrobials, for 7 days.
The impact of the MBAs on antibiotic resistance was also tested. Serial passage of growth as a screen for resistant P. aeruginosa PAO1 was performed for 7 days in SWF supplemented with sublethal (1/8 dilution from the MIC) concentrations of Ag, Te, and Ag—Te mixture.

P. aeruginosa biofilm [2] = assay type: cell-based, Pseudomonas aeruginosa; remark: listed apart in the source
39 clinical isolates = assay: Antibiotic resistance of the clinical isolates; assay type: cell-based; details: out of 39 clinical isolates

| Compound | Inhibition of P. aeruginosa biofilm (MBIC) (P. aeruginosa biofilm [1]; LB, in 48 h) [mM] | Inhibition of P. aeruginosa biofilm (MBIC) (P. aeruginosa biofilm [1]; MHB, in 48 h) [mM] | Inhibition of P. aeruginosa biofilm (MBIC) (P. aeruginosa biofilm [1]; SWF, in 48 h) [mM] | recovery of bacteria in the same fresh media after treatment (P. aeruginosa) | dilution in which bacteria recovered when agent used alone (P. aeruginosa) | occurrence of resistance during serial passage (P. aeruginosa PAO1) | Eradication of P. aeruginosa biofilm (MBEC) (P. aeruginosa biofilm [2]; LB, in 24 h) [mM] | Eradication of P. aeruginosa biofilm (MBEC) (P. aeruginosa biofilm [2]; MHB, in 24 h) [mM] | Eradication of P. aeruginosa biofilm (MBEC) (P. aeruginosa biofilm [2]; SWF, in 24 h) [mM] | Inhibition of P. aeruginosa biofilm (MBIC) (P. aeruginosa biofilm [1]) [mM] | Eradication of P. aeruginosa biofilm (MBEC) (P. aeruginosa biofilm [2]) [mM] | clinical isolates resistant to the antibiotic (39 clinical isolates) |
| --- | --- | --- | --- | --- | --- | --- | --- | --- | --- | --- | --- | --- |
| O=[N+]([O-])[O-].[Ag+] [Ag, silver nitrate] | 0.125 | 0.03 | 0.25 | couldn't inhibit the recovery of bacteria | three-fold higher dilution | after two days | 0.065 | 0.03 | 0.5 | – | – | – |
| [Au+3].[Cl-].[Cl-].[Cl-].[Cl-] [Au, tetrachloroaurate] | 0.5 | 0.25 | 0.25 | – | – | – | 0.25 | 0.25 | 1 | – | – | – |
| O=S(=O)([O-])[O-].[Cu+2] [Cu, copper sulfate] | – | – | – | – | – | – | – | – | – | 8 | 6.25 | – |
| O=[N+]([O-])[O-].O=[N+]([O-])[O-].O=[N+]([O-])[O-].[Ga+3] [Ga, gallium nitrate] | 12.5 | 12.5 | 25 | – | – | – | 3 | 3 | 12.5 | – | – | – |
| O=[Se](O)O [Se, sodium selenite] | >50 | >50 | >50 | – | – | – | >50 | >50 | >50 | – | – | – |
| O=[Te]([O-])[O-].[K+].[K+] [Te, potassium tellurite] | 0.5 | 0.5 | 0.5 | couldn't inhibit the recovery of bacteria | two-fold higher dilution | after five days | 0.5 | 0.5 | 0.5 | – | – | – |
| gentamicin | – | – | – | – | – | – | – | – | – | – | – | 15 (38%) isolates (%) |
